Entries after “also recorded” stand apart in the source; their conditions may differ. Like-named read-outs stand apart in the source and are kept apart here. Ends that are not written are not given here.
Experiments:
FXa/FVa = biological target: T1, FXa/FVa (Homo sapiens, UniProt P12259); test: Prothrombin activation assay, FXa/FVa; assay type: biochemical
T1 construct: thrombin rapidly cleaves Factor V at Arg709 to produce heavy chain (HC); rapidly cleaves at Arg1018 and Arg1545 to produce light chain (LC); made in house
T1 sequence (P12259 29-737 limits assumed): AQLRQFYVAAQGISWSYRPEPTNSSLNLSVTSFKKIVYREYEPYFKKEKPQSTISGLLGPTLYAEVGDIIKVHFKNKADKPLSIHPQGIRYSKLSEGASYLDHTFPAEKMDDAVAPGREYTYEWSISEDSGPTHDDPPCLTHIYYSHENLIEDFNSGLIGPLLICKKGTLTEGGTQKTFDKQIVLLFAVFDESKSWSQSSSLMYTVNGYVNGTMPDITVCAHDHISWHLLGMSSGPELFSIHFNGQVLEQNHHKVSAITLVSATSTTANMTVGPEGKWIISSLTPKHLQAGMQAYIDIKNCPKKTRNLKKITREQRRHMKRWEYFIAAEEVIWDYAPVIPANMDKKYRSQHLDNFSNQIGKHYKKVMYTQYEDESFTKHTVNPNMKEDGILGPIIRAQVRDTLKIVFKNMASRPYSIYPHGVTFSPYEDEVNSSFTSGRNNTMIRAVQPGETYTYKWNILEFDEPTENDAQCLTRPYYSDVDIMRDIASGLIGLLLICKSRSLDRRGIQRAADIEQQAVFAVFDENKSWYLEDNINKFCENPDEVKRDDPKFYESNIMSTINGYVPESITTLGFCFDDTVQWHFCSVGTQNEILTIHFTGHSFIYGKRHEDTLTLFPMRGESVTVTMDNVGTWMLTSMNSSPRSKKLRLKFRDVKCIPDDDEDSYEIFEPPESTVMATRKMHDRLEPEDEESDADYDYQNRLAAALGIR
T1 sequence (P12259 1574-2224 limits assumed): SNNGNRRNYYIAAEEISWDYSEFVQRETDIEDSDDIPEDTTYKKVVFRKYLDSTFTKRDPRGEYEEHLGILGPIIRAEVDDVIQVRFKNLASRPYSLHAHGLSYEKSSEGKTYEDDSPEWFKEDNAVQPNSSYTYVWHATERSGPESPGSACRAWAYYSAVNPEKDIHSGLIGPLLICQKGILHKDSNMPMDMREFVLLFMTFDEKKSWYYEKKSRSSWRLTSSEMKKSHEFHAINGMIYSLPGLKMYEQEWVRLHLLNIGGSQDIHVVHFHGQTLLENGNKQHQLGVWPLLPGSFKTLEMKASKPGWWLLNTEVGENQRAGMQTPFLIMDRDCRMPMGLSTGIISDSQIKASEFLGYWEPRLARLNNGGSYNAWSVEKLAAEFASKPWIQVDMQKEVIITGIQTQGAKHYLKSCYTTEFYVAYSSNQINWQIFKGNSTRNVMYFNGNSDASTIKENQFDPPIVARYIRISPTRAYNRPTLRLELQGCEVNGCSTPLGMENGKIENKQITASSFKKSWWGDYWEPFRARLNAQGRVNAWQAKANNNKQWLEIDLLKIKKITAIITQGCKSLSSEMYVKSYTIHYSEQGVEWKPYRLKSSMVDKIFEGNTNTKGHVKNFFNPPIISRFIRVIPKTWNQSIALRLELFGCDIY
Description: (§1) Steady-state initial velocities of prothrombin cleavage were determined discontinuously at 25° C. by measuring the initial rate of thrombin formation. Reaction mixtures contained liposomes (75:25, PC:PS), prothrombin, the indicated Factor V variants, and the Factor V peptides FVBR or s46. The reactions were initiated by adding Factor Xa, and thrombin generation was determined at multiple time points by monitoring the cleavage of the chromogenic thrombin substrate S-2238.
(§2) Steady-state initial velocities of prothrombin cleavage were determined discontinuously at 25° C. as described (Camire, R. M. (2002) J. Biol. Chem., 277:37863-37870). Reaction mixtures containing PCPS (50 μM), DAPA (3 μM), prothrombin (1.4 μM), and either rFVa or the indicated FV-810 derivatives were incubated with B-domain peptides (0-10 μM) in assay buffer. […] Prothrombin activation was determined using the chromogenic thrombin substrate 52238 as described (Camire, R. M. (2002) J. Biol. Chem., 277:37863-37870).

FV-810 [1] = biological target: T2, FV-810 (Homo sapiens, UniProt P12259, DEL839-1519); test: Fluorescence anisotropy, direct binding of OG488-BR to FV-810; settings: fluorescently labeled FVBR
T2 construct: amino acids 1-28 are a signal peptide that is cleaved and numbering begins at residue 29; made in house

FV-810^QQ = biological target: T3, FV-810^QQ (Homo sapiens, UniProt P12259, DEL839-1519/R1573Q/R737Q); test: Clotting assay with FV-810^QQ; assay type: biochemical
T3 construct: amino acids 1-28 are a signal peptide that is cleaved and numbering begins at residue 29; made in house
Description: (§3) Residual clotting activity of Factor V variants was determined by prothrombin time-based clotting assays. Factor V variants were incubated with either the FVBR or s46 peptide, after which the mixtures were mixed with Factor V deficient plasma and clotting times were measured. Where indicated, the Factor V variants were activated by pre-incubation with thrombin prior to addition of the peptides.
(§4) FV derivatives (500 nM) were prepared in assay buffer. Where noted, FV derivatives were pretreated with 10 nM thrombin for 15 minutes at 37° C., followed by the addition of 15 nM hirudin. Samples were diluted to 0.25 nM in assay buffer with 0.1% BSA, and the specific clotting activity was measured in FV-deficient plasma (George King Bio-Medical, Overland Park, Kans.) with TriniCLOT PT Excel (Tcoag, Wicklow, Ireland) as described (Camire et al. (1998) Biochemistry 37:11896-11906). The data are presented as the means±S.D.

normal human plasma = test: Clot time of normal human plasma; assay type: biochemical; settings: increasing amounts of FVBR
FXa/FV-DT [2] = biological target: T4, FXa/FV-DT (Homo sapiens, UniProt P12259, DEL839-1519); test: Binding of fluorescently labeled FXa to FV-DT on liposomes (anisotropy); settings: on PCPS liposomes
T4 construct: amino acids 1-28 are a signal peptide that is cleaved and numbering begins at residue 29; made in house

FV-810 [3] = biological target: T2, FV-810; test: Displacement of OG488-BR from preformed OG488-BR/FV-810 complex (fluorescence anisotropy); assay type: binding; settings: 30 nM OG488-BR, 20 nM FV-810, 50 μM PCPS; for Kd: 25° C.
FXa/FV-DT [4] = biological target: T4, FXa/FV-DT; test: Prothrombin activation assay, prothrombinase containing FV-810 (FV-DT); assay type: biochemical; settings: peptide titrated, 1.4 μM prothrombin, 50 μM PCPS, 25° C.
Description: as §1, §2

rFVa = biological target: T5, rFVa (Homo sapiens, UniProt P12259); test: Clotting assay, FV-deficient plasma supplemented with rFVa; assay type: biochemical; settings: FIG. 8B: 0.25 nM rFVa, peptides at 5 μM, listed as BR peptide
T5 construct: thrombin rapidly cleaves Factor V at Arg709 to produce heavy chain (HC); rapidly cleaves at Arg1018 and Arg1545 to produce light chain (LC); made in house
T5 sequence (P12259 29-737 limits assumed): T1 sequence (P12259 29-737 limits assumed)
T5 sequence (P12259 1574-2224 limits assumed): T1 sequence (P12259 1574-2224 limits assumed)
Description: as §3, §4

[5] = listed as FV basic region peptide

T4 sequence (P12259 with tags, fused parts or gaps DEL839-1519): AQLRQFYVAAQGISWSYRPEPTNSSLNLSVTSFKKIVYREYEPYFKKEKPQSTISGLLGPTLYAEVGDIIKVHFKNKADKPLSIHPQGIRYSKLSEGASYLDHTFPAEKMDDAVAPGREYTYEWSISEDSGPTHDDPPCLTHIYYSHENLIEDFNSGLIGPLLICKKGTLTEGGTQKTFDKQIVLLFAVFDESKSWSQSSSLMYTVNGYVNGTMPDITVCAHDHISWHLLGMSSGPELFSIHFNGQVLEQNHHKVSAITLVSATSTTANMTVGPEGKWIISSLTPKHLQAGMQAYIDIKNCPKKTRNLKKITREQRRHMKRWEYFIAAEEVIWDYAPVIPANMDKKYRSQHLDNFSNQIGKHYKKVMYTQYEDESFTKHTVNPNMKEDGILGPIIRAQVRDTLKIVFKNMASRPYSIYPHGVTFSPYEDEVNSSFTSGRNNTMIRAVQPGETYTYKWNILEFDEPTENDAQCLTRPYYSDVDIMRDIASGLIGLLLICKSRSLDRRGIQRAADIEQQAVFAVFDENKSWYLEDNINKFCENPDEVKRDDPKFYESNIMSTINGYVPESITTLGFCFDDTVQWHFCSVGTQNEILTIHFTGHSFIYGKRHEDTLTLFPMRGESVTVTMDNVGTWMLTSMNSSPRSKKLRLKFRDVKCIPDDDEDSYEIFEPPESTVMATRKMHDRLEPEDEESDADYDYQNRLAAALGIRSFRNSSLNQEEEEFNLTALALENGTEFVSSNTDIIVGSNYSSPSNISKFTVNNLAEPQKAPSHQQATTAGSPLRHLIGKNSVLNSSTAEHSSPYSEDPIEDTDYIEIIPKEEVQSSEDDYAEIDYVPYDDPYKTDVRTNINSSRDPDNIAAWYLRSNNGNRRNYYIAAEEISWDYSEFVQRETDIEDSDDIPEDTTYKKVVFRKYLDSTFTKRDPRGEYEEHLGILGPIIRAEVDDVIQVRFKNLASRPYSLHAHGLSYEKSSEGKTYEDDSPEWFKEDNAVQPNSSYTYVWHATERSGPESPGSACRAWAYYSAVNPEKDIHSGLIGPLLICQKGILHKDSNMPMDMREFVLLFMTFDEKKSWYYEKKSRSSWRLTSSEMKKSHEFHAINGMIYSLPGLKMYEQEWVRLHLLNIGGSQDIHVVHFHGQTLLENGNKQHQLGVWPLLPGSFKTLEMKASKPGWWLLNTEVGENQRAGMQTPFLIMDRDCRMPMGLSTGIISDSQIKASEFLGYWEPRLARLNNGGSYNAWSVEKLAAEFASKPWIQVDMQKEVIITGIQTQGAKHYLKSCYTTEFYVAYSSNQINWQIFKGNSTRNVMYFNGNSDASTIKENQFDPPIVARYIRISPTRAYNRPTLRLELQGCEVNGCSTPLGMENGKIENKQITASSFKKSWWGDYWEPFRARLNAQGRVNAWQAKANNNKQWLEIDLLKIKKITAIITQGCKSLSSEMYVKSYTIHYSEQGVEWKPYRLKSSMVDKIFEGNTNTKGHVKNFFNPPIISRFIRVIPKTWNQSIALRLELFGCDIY
T2 sequence (P12259 with tags, fused parts or gaps DEL839-1519): as above
T3 sequence (P12259 with tags, fused parts or gaps R737Q/DEL839-1519/R1573Q): as the sequence (P12259 with tags, fused parts or gaps DEL839-1519) above, with R709Q, R864Q counted along it

- effect on prothrombin activation by FXa/FVa (FXa/FVa): did not affect
- effect on prothrombin activation by FXa/FVa (FXa/FVa; listed as BR peptide): no inhibitory effect
- direct binding to FVDT (FV-810 [1]): direct binding
- direct binding to FVDT (FV-810 [1]; [5]): binds FVDT
- inhibition of FV-810^QQ (FV-810^QQ; following incubation with thrombin): still inhibited
- inhibition of FV-810^QQ (FV-810^QQ; prior to thrombin cleavage): potently inhibited
- disruption of FXa binding to FV-DT (FXa/FV-DT [2]): impaired
- disruption of FXa binding to FV-DT (FXa/FV-DT [2]; [5]): disrupts binding
- stoichiometry n, unlabeled BR (FV-810 [3]): 1.0±0.06 mol of BR/mol of FV-810
- Kd (FV-810 [3]; assuming stoichiometry of 1 mol of FV-810/mol of BR peptide): 2.2 ± 0.2 nM
- Kd (FV-810 [3]; n fitted): 2.1 ± 0.2 nM
- inhibition of prothrombin activation with FV-810 (FV-DT) (FXa/FV-DT [4]): inhibiting; also recorded: inhibition
- inhibition of prothrombin activation with FV-810 (FV-DT) (FXa/FV-DT [4]; listed as BR peptide): effectively inhibited
- inhibition of clotting activity of rFVa/FVa (rFVa): no inhibitory effect
Sequence: SRAWGESTPLANKPGKQSGHPKFPRVRHKSLQVRQDGGKSRLKKSQFLIKTRKKKKEK [FVBR]
- clot time of normal plasma (normal human plasma): prolongs the clot time
